Reference: patent US20260022098A1, “BULLEYACONITINE A DERIVATIVE WITH ANALGESIC ACTIVITY, AND PREPARATION METHOD AND APPLICATION THEREOF” (priority 2023, published 2026)

Experiments:
Kunming mice [1] = assay: Analgesic activity by acetic acid-induced writhing method (writhing inhibition rate, ED50); type: in vivo; details: Mus musculus, sc, read-out: Analgesia rate (%) ± SEM
Protocol: (§1) The experimental animals were Kunming mice (male:female=1:1), weighed 22+2 g, which were provided by Chengdu dossy experimental animals Co., ltd., China. The mice were kept in the animal room of the School of Life Science and Engineering, Southwest Jiaotong University, where the animal room was set at a temperature of 23±2° C., a humidity of […] and a photoperiod of 16:8 h (L:D). Before the experiment, the mice were freely fed for 2-3 days with water and feed to adapt to the new environment. Then, the mice were treated by water and food fasting for 12 h. 10 animals were allocated to each group to ensure that there are at least 6 sets of valid data in each group. The animal experiments were carried out in strict accordance with the national regulations on the management of experimental animals.
(§2) The compounds prepared in the examples provided herein (test sample set) and bulleyaconitine A (positive control set) were all dissolved with 0.1 mol/L HCl according to a molar ratio of 1:1, and then diluted with physiological saline to a concentration to be determined. Blank control was physiological saline containing 0.1 mol/L HCl. The animals in the control groups were subjected to the same treatment as those in experimental groups except that samples to be test were replaced with physiological saline.
(1) Determination of Analgesic Activity Through an Acetic Acid-Induced Writhing Method
10 mice were randomly selected, male:female=1:1, were placed in independent cages. Each mouse was injected subcutaneously with the sample solution mentioned above at a dose of 0.1 mL/10 g body weight. After 15 min, a 0.7% acetic acid solution was intraperitoneally injected. A number of writhing reactions in each mouse within 15 minutes was recorded. The group that the mice were injected with physiological saline subcutaneously was the blank group; the group that the mice were injected with the sample to be tested was the experimental group; and the group that the mice were injected with bulleyaconitine A was the positive group. The analgesic activity was represented by a percentage of the reduced number of writhing compared to the blank group (writhing inhibition rate), which were specifically as follows: writhing inhibition rate (analgesic activity)=(average number of writhing times in the blank group-average number of writhing times in the experimental group)/average number of writhing times in the blank group×100%.
Median Effective Dose (ED50) Determination
The sample to be tested was dissolved with 0.1 mol/L HCl according to the amount of the substance ratio of 1:1, and diluted with physiological saline according to the proportional series to obtain at least 5 groups with different dose concentrations. The writhing inhibition rate of each dose group was tested according to the acetic acid-induced writhing method mentioned above. The obtained dose-writhing inhibition data was entered into the statistical product and service solutions (SPSS) software (version 17.2), and the ED50 of the sample to be tested was calculated through the Probit regression method.

Kunming mice [2] = assay: Acute toxicity / median lethal dose (LD50) determination, subcutaneous injection; type: in vivo; set-up: key to Acute toxicity: if death occurred, (+) represented as positive; if no death occurred, (−) represented as negative; details: mice administered 20 mg/kg subcutaneously, presence of death within 24 h
Protocol: as §1, §2
(2) Median Lethal Dose (LD50) Determination
The sample to be tested was dissolved with 0.1 mol/L HCl according to the amount of the substance ratio of 1:1, and diluted with physiological saline according to the required concentration. 10 mice in each group were randomly selected, half of which were male and half of which were female, and were placed in independent cages. Each mouse was injected subcutaneously with different sample solutions to be tested according to a dose of 0.1 mL/10 g body weight. In the preliminary toxicity experiment, the measured concentration was 20 mg/kg, and then based on the survival rate of the experimental animals in the preliminary experiment, the sample to be tested was set to at least 5 groups with different concentration dose according to the proportional series. The survival rate of mice within 24 h was recorded. The obtained dose-survival rate data was input into the SPSS software (version 17.2), and the LD50 of the sample was calculated according to the Probit regression method.

Row | Compound | inhibition in vivo at 0.05 mg/kg (Kunming mice [1]) [%] | Acute toxicity (Kunming mice [2])
1 | CCN1C[C@]2(COC)CC[C@H](OC)[C@@]34C5C[C@]6(OC(C)=O)[C@@H](OC)C[C@@](OC(C)=O)(C5[C@H]6OC(=O)c5ccc(OC)cc5)C([C@H](OC)C23)[C@@H]14 (stereo partly shown) [Compound 43] | 4.92 ± 1.5 | −
2 | CCN1C[C@]2(COC)CC[C@H](OC)[C@@]34C5C[C@]6(OC(C)=O)[C@@H](OC)C[C@@](OC)(C5[C@H]6OC(C)=O)C([C@H](OC)C23)[C@@H]14 (stereo partly shown) [Compound 44] | 5.82 ± 3.4 | −
3 | CCN1C[C@]2(COC)CC[C@H](OC)[C@@]34C5C[C@]6(OC(C)=O)[C@@H](OC)C[C@@](OC)(C5[C@H]6OC(=O)c5ccc(OC)cc5)C([C@H](OC)C23)[C@@H]14 (stereo partly shown) [Compound 45] | 21.6 ± 1.3 | −
4 | CCO[C@]12C[C@H](OC)[C@@]3(OC(=O)c4ccc(C(F)(F)F)cc4)CC(C1[C@H]3OC(=O)c1ccc(C(F)(F)F)cc1)[C@]13C4[C@@H](OC)C2[C@H]1N(CC)C[C@]4(COC)CC[C@@H]3OC (stereo partly shown) [Compound 46] | 16.7 ± 2.6 | −
5 | CCO[C@]12C[C@H](OC)[C@@]3(OC(=O)c4ccc(C(F)(F)F)cc4)CC(C1[C@H]3OC(=O)c1ccc(OC)cc1)[C@]13C4[C@@H](OC)C2[C@H]1N(CC)C[C@]4(COC)CC[C@@H]3OC (stereo partly shown) [Compound 47] | 33.8 ± 2.2 | −
6 | CCN1C[C@]2(COC)CC[C@H](OC)[C@@]34C5C[C@]6(OC(=O)c7ccc(C(F)(F)F)cc7)[C@@H](OC)C[C@@](OC(C)=O)(C5[C@H]6OC(=O)c5ccc(OC)cc5)C([C@H](OC)C23)[C@@H]14 (stereo partly shown) [Compound 48] | 17.5 ± 3 | −
7 | CCO[C@]12C[C@H](OC)[C@@]3(OC(=O)c4ccncc4)CC(C1[C@H]3OC(=O)c1ccncc1)[C@]13C4[C@@H](OC)C2[C@H]1N(CC)C[C@]4(COC)CC[C@@H]3OC (stereo partly shown) [Compound 49] | 13.7 ± 1 | −
8 | CCO[C@]12C[C@H](OC)[C@@]3(OC(=O)c4ccncc4)CC(C1[C@H]3OC(=O)c1ccc(OC)cc1)[C@]13C4[C@@H](OC)C2[C@H]1N(CC)C[C@]4(COC)CC[C@@H]3OC (stereo partly shown) [Compound 50] | 33.2 ± 1.4 | −
9 | CCN1C[C@]2(COC)CC[C@H](OC)[C@@]34C5C[C@]6(OC(=O)c7ccncc7)[C@@H](OC)C[C@@](OC(C)=O)(C5[C@H]6OC(=O)c5ccc(OC)cc5)C([C@H](OC)C23)[C@@H]14 (stereo partly shown) [Compound 51] | 32.6 ± 1.7 | −
10 | CCO[C@]12C[C@H](OC)[C@@]3(OC(=O)c4ccccc4)CC(C1[C@H]3OC(=O)c1ccc(OC)cc1)[C@]13C4[C@@H](OC)C2[C@H]1N(CC)C[C@]4(COC)CC[C@@H]3OC (stereo partly shown) [Compound 53] | 0 | −
11 | CCN1C[C@]2(COC)CC[C@H](OC)[C@@]34C5C[C@]6(OC(=O)c7ccccc7)[C@@H](OC)C[C@@](OC(C)=O)(C5[C@H]6OC(=O)c5ccc(OC)cc5)C([C@H](OC)C23)[C@@H]14 (stereo partly shown) [Compound 54] | 0 | −
12 | CCN1C[C@]2(COC)CC[C@H](OC)[C@@]34C5C[C@]6(OC(=O)c7ccccc7)[C@@H](OC)C[C@@](OC)(C5[C@H]6OC(=O)c5ccccc5)C([C@H](OC)C23)[C@@H]14 (stereo partly shown) [Compound 55] | 11.7 ± 1.6 | −
13 | CCO[C@]12C[C@H](OC)[C@@]3(OC(=O)c4ccc(C)cc4)CC(C1[C@H]3OC(=O)c1ccc(C)cc1)[C@]13C4[C@@H](OC)C2[C@H]1N(CC)C[C@]4(COC)CC[C@@H]3OC (stereo partly shown) [Compound 56] | 11.4 ± 2 | −
14 | CCO[C@]12C[C@H](OC)[C@@]3(OC(=O)c4ccc(C)cc4)CC(C1[C@H]3OC(=O)c1ccc(OC)cc1)[C@]13C4[C@@H](OC)C2[C@H]1N(CC)C[C@]4(COC)CC[C@@H]3OC (stereo partly shown) [Compound 57] | 5.39 ± 2 | −
